Measurements published in patent US5633277A, “Sulfonamide aminomethylene derivatives as immunosuppressants” (Miles Inc., priority 1995, dated 1997).
“And” between values parts separate entries of the source, which are not always exact repeats. Identical values can stand only once.

Tests used:
human T-cells = assay: Suppression of Human T-Cell Proliferation Assay (mitogen-induced, [3H]-thymidine incorporation); format: cell-based; settings: for IC50: Homo sapiens, T-cell, 72 hours incubation, mitogen stimulated, read-out: IC50 (inhibition of [3H]-thymidine incorporation of T-cells by 50%)
From the text: 2) Human T Lymphocyte Inhibition
Inhibition of mitogen-induced T-cell proliferation can be used to profile immunosuppressive activity of test compounds. In the description of the assay which follows, mitogen-induced T-cell proliferation was used to test the inhibitory potencies of select compounds of the present invention.
In an assay similar to that described by Bradley in Mishell et al. (Eds.), 1980, Selected Methods in Cellular Immunology, pp 156-161, W. H. Freeman & Co., San Fransisco, Calif., T-cells were stimulated by incubation with phytohemagglutinin (PPIA) which binds to cell surface molecules, including the T-cell receptor. This stimulation results in proliferation which can be measured by incorporation of [^3 H]-thymidine into cellular DNA.
The immunosuppressive properties of the compounds of the present invention can be determined by adding various concentrations of the compounds to these cultures and measuring the effect on T-cell proliferation.
Suppression of Human T-Cell Proliferation Assay
Fresh LeukoPaks were obtained from the New York Blood Center, New York, N.Y. The cells, including erythrocytes and leukocytes, were diluted with Hank's Balanced Salt Solution (HBSS) (GIBCO, Grand Island, N.Y.) and layered over Lymphoprep (Nycomed Pharma AS, Oslo, Norway) in sterile 50 ml conical centrifuge tubes. Lymphocytes were isolated at the Hank's/Nycomed interface after centrifugation at 2000×g, 4° C. for 15 min. The lymphocytes were washed with Minimal Essential Medium (GIBCO) containing 2% fetal bovine serum (FBS) (Sigma Chemical Co., St. Louis, Mo.), 1% HEPES buffer (GIBCO) and 1% Penicillin-Stretomycin solution (GIBCO).
T-cells were further purified essentially by sheep erythrocyte (SRBC) rosetting as described by Morimoto et al., 1983, J. Immunol. 130:157. The isolated lymphocytes were adjusted to 2×10^7 cells/ml and 5 ml aliquots of the cell suspension were incubated for 10 minutes at room temperature with 5 ml of a 5% SRBC (Cappel, Organon Technika Corp., West Chester, Pa.) suspension. The cells were gently pelleted by centrifugation at 300 rpm for 10 minutes, followed by a 1 hour incubation at room temperature to allow rosette formation. The cells were gently resuspended,layered over Lymphoprep and centrifuged for 30 minutes at 500×g. The pellet, containing rosetted T-cells and SRBC was treated with ice cold buffered ammonium chloride (GIBCO) to lyse the erythrocytes. T-cells were washed twice with HBSS.
Purified T-cells were resuspended at 2×10^6 cells/ml in complete culture medium composed of RPMI-1640 (Whittaker Bioproducts, Walkerville, Md.) with 10% FBS (Sigma), 2 mM L-glutamine (GIBCO), 1% Penicillin-Streptomycin (GIBCO) and 15 mM HEPES (GIBCO). In 96-well plates (Becton Dickinson, Lincoln Park, N.J.), 0.1 ml aliquots of T-cell suspension were mixed with 0.05 ml of 40 μg/ml PPIA-M (Sigma). The compounds of this invention were dissolved in dimethylsulfoxide at 10 mM and various dilutions in complete medium were added in duplicate wells (0.05 ml/well). The plates were incubated at 37° C. in a humidified atmosphere of 5% carbon dioxide and 95% air for 72 hours.
Proliferation was assessed by measurement of [3H]-thymidine incorporation. During the last 6 hours of incubation, the cells were pulse labelled with 1 μCi/well of [3H]-thymidine (New England Nuclear, Boston, Mass.). The cells were harvested onto glass fiber paper using a plate harvester and the radioactivity incorporated into cellular DNA corresponding to individual wells was measured by standard liquid scintillation counting methods. The mean counts per minute (CPM) of replicate wells was calculated and linear regression analysis of mean CPM versus compound concentration was used to determine the concentration of compound which would inhibit [^3 H]-thymidine incorporation of T-cells by 50% (IC50).

NF-AT = NF-AT Inhibition Assay (NF-AT directed β-galactosidase expression in stimulated FGL-5 cells); format: cell-based; settings: phorbol ester and ionomycin stimulated, 16-18 hours
Procedure: Stimulation of T-cells leads to the appearance of several transcription factors, including one designated "NF-AT". These factors are involved in regulation of gene expression required for immunologic activation. Some of these transcription factors appear to have functions in a wide variety of cell types. By contrast, NF-AT is found primarily in T-cells and its role is restricted to early gene activation.
Inhibition of NF-AT activity is measured using FGL-5 cells. FGL-5 is a cloned line of stably transfected Jurkat T-cells that contain a construct in which three tandem copies of the NF-AT DNA binding site direct transcription of the lacZ gene, encoding β-galactosidase (Fiering et al., 1990, Genes & Development 4:1823). When these cells are stimulated with phorbol esters which activate protein kinase C and calcium ionophore to raise the intracellular calcium concentration, transcriptionally active NF-AT is produced. In T-cells, this normally leads to the expression of IL-2, T-cell growth factor. However, in FGL-5 cells NF-AT activation leads to the production of β-galactosidase which can be detected using an appropriate substrate.
NF-AT Inhibition Assay Directed β-Galactosidase Expression
This assay was performed essentially as described (Bierer et al., 1990, Proc. Natl. Acad. Sci. 87:9231). FGL-5 cells were maintained in medium consisting of RPMI-1640 with 10% FBS, 2 mM L-glutamine, 1% Penicillin- Streptomycin and 15 mM HEPES buffer. The assays were done with exponentially growing cells whose density was not greater than 0.5 million cells/ml. The cells were resuspended to 3 million cells/ml in medium and 0. 1 mi was added to wells of a 96-well plate.
The compounds of the present invention were dissolved in either ethanol or dimethylsulfoxide at 10 mM and 0.05 ml/well of various dilutions in medium were added to cells in duplicate wells. Treatment controls consisted of duplicate wells to which 0.05 ml/well of either medium, ethanol or dimethylsulfoxide was added. The ethanol and dimethyl sulfoxide were at the same concentration as was used for the compounds. Cells were incubated with compounds at room temperature for 10-15 minutes. Phorbol dibutyrate (Sigma) and Ionomycin (Calbiochem) were dissolved at 50 μg g/mi and 2 mM, respectively and stored at -70° C.
FGL-5 cells were stimulated by diluting these reagents with medium to 200 ng/ml and 8 μM, respectively and adding of 0.05 ml/well. For unstimulated cell controls, 0.05 mi/well of medium was added to duplicate wells. The plates were incubated overnight (16-18 hours) at 37° C. in a humidified atmosphere of 5% CO2 and air. β-galactosidase activity was measured as the fluorescence generated by the cleavage of 4-methyl umbelliferyl-β-D-galactoside (Sigma) at the β-galactoside bond. After overnight incubation, the cells were centrifuged at 500×g for 3 minutes in the 96-well plates and washed 3 times with PBS. The cells were then resuspended in 0. 18 mi/well of reaction medium containing 100 mM sodium phosphate buffer, pH 7.0, 10 mM potassium chloride, 1 mM magnesium sulfate, 0.1% Triton X-100 (Pierce, Rockford, Ill.), and 0.5 mM 4-methylumbelliferyl-β-D- galactoside.
The fluorescence at 460 nm using 355 nm excitation was measured at intervals over 1-2 hours (during which fluorescence increased linearly with time) with a LS50 Luminescence Spectrometer (Perkin Elmer).
The percent inhibition by each concentration of the compounds was calculated as: [formula]
The values of the concentration of compounds required for 50% inhibition (IC50) were determined by linear regression analysis of the percent inhibition at various compound concentrations.

| IC50 (NF-AT) | Compound | inhibition of mitogen-induced T-cell proliferation (in words) (human T-cells) | IC50 (human T-cells) [µM] |
| --- | --- | --- | --- |
| ≤ 11 µM and 9 µM | CC(C)C[C@@H](CN1CCC[C@H]1C(=O)NCCCCc1ccccc1)NS(C)(=O)=O [Example 1, 1-[2-(S)-Methanesulfonylamino-4-methylpentyl]-L-proline 4-Phenylbutylamide] | inhibited mitogen induced T-cell proliferation | 2 |
| > 15 µM | CC(C)C[C@@H](CN1CCC[C@H]1C(=O)NCCCCc1ccccc1)NS(=O)(=O)/C=C/c1ccccc1 [Example 6, 1-[2-(S)-(2-phenyl-ethenesulfonylamino)-4-methylpentyl]-L-proline 4-Phenylbutylamtde] | – | 5 |
| > 15 µM | CC[C@H](C)[C@H](NC(=O)[C@@H]1CCCCN1C[C@@H](NS(C)(=O)=O)[C@@H](C)CC)C(=O)NCc1ccccc1 [Example 11] | – | > 15 |
| 24 µM | CC(=O)Nc1nc(C)c(S(=O)(=O)N[C@@H](CC(C)C)CN2CCC[C@H]2C(=O)NCCCCc2ccccc2)s1 [Example 4, 1-[2-(S)-(2-Acetylamino-4-methyl-S-thiazolesulfonylamino)-4-methylpentyl]-L -proline 4-Phenylbutylamide] | – | 2 |
| 24 µM | CC(C)C[C@@H](CN1CCC[C@H]1C(=O)NCCCCc1ccccc1)NS(=O)(=O)c1cccs1 [Example 5, 1-[2-(S)-(Thiophene-2-sulfonylamino)-4-methylpentyl]-L-proline 4-Phenylbutylamide] | – | 3 |
| 27 µM | Cc1ccc(S(=O)(=O)N[C@@H](CC(C)C)CN2CCC[C@H]2C(=O)NCCCCc2ccccc2)cc1 [Example 2, 1-[2-(S)-(Toluene-4-sulfonylamino)-4-methylpentyl]-L-proline 4-Phenylbutylamide] | – | 8 |
| > 15 µM | CC(C)C[C@@H](CN1CCC[C@H]1C(=O)NCCCCc1ccccc1)NS(=O)(=O)c1ccc(-c2ccon2)s1 [Example 8, 1-[2-(S)-(5 - [Isoxazol-25-yl]-thiophene-2-sulfonylamino)-4-methylpentyl]-L-proline 4-Phenylbutylamide] | – | 1 |
| > 15 µM | CC(C)C[C@@H](CN1CCC[C@H]1C(=O)NCCCCc1ccccc1)NS(=O)(=O)CC12CCC(CC1=O)C2(C)C (single isomer, unassigned) [Example 7] | – | 2 |
| ≤ 11 µM and 11 µM | CC(C)C[C@@H](CN1CCC[C@H]1C(=O)NCCCCc1ccccc1)NS(=O)(=O)c1cccc2cccnc12 [Example 3, 1-[2-(S)-(Quinoline-8-sulfonylamino)-4-methylpentyl]-L-proline 4-Phenylbutylamide] | inhibited mitogen induced T-cell proliferation | 5 |
| > 15 µM | CC(C)C[C@@H](CN1CCC[C@H]1C(=O)NCCCCc1ccccc1)NS(=O)(=O)c1c(C(C)C)cc(C(C)C)cc1C(C)C [Example 10, 1-[2-(S)-(2',4',6'-Triisopropylbenzenesulfonylamino)-4-methylpentyl]-L-proline 4-Phenylbutylamide] | – | 4 |
